Test results taken from paper PMC3608651, “A Broad Profile of Co-Dominant Epitopes Shapes the Peripheral Mycobacterium tuberculosis Specific CD8+ T-Cell Immune Response in South African Patients with Active Tuberculosis” (PLoS ONE, 2013).
Where two headings read alike, the source gives them in different places.

Columns and labels:
Assay type in all cases: binding
HLA-A*68:01 [1] = target: T1, HLA-A*68:01 (Homo sapiens, UniProt P04439, A269V/D185E/E176V/E277Q/E87N/F33Y/G231S/I121M/I166T/I218V/L180W/L300P/L318F/N151K/P208A/P217A/Q86R/R169H/T345S); conditions: duplicated experiments, positive binder >40%
HLA-A*68:01 [2] = target: T1, HLA-A*68:01
HLA-A*68:01 [3] = target: T1, HLA-A*68:01; conditions: time points 0-8 h
HLA-B*58:01 [4] = target: T2, HLA-B*58:01 (Homo sapiens, UniProt P01889, A329T/C349S/D201E/D98Y/E176V/E187L/E204Q/E69T/G107R/I218V/I90N/K202T/L105A/L119I/N104I/N87E/Q89R/Q94S/R106L/R155S/R180L/R86G/S101N/S121R/S35A/S48A/T118I/V127L/V306I/V36M/Y140S/Y91M); conditions: duplicated experiments, positive binder >40%
HLA-B*58:01 [5] = target: T2, HLA-B*58:01
HLA-B*58:01 [6] = target: T2, HLA-B*58:01; conditions: time points 0-8 h
HLA-C*07:01 = HLA-C*07:01 (Homo sapiens, UniProt P10321, K90N/S123Y); conditions: duplicated experiments, positive binder >40%
HLA-A*02:01 = HLA-A*02:01 (Homo sapiens, UniProt P04439, D140Y/D185E/D98H/E176V/E277Q/G131W/G231S/I119V/I121R/I166T/I218V/L300P/L318F/N151K/N90K/P208A/P217A/Q86G/Q94H/R138H/R169H/T345S); conditions: plate-bound monomer 0.5 µg/ml, duplicated experiments, positive binder >40%
HLA-A*24:02 = HLA-A*24:02 (Homo sapiens, UniProt P04439, D101N/D140Y/D185E/E176V/E190D/F33S/G103R/G107R/I119L/I121M/I306V/K335N/L105A/L180Q/L300P/N151K/N90K/Q86E/Q94H/R106L/R138H/R89G/T104I/T345S/V100E/W191G/Y123F); conditions: duplicated experiments, positive binder >40%
HLA-A*30:01 = HLA-A*30:01 (Homo sapiens, UniProt P04439, D140H/D185E/E176W/F33S/G80R/H175R/K168Q/R138E/R41S); conditions: duplicated experiments, positive binder >40%
HLA-A*30:02 [7] = target: T3, HLA-A*30:02 (Homo sapiens, UniProt P04439, D101N/D140H/D185E/E176R/F33S/G80R/H175R/K168Q/Q94H/R138E/R41S/V100E); conditions: duplicated experiments, positive binder >40%
HLA-B*07:02 = HLA-B*07:02 (Homo sapiens, UniProt P01889); conditions: percent relative the binding of positive control peptide […]; duplicated experiments; positive binder >40%
HLA-A*30:02 [8] = target: T3, HLA-A*30:02
HLA-A*30:02 [9] = target: T3, HLA-A*30:02; conditions: time points 0-8 h
[10] = percent relative the binding of positive control peptide […]
[11] = percent relative the binding of positive control peptide FLPSDFFPSV
[12] = percent relative the binding of positive control peptide RYLKDQQLL
[13] = percent relative the binding of positive control peptide KTKDIVNGL
[14] = percent relative the binding of positive control peptide KIQNFRVYY
[15] = percent relative the binding of positive control peptide KTGGPIYKR
[16] = peptide titrated 10−4 to 10−9 M
[17] = percent relative the binding of positive control peptide IAMESIVIW
[18] = percent relative the binding of positive control peptide KYFDEHYEY

Substance | Bind A*68:01 (HLA-A*68:01 [1]; [10]) | Aff A*68:01 (ED50) (HLA-A*68:01 [2]) | O-rate A*68:01 (t1/2) (HLA-A*68:01 [3]) | Bind B*58:01 (HLA-B*58:01 [4]; [10]) | Bind C*07:01 (HLA-C*07:01; [10]) | Bind B*07:02 (HLA-B*07:02) | Bind A*02:01 (HLA-A*02:01; [10]) | Bind A*24:02 (HLA-A*24:02; [10]) | Bind A*30:01 (HLA-A*30:01; [10]) | Bind A*30:02 (HLA-A*30:02 [7]; [10]) | Aff A*30:02 (ED50) (HLA-A*30:02 [8]) | O-rate A*30:02 (t1/2) (HLA-A*30:02 [9]) | further results
WQGDTGITY [Rv0288_43–51] | 61% | 1e-05 M | 6.0 h | 33% | 0% | – | – | – | – | – | – | – | Aff B*58:01 (ED50) (HLA-B*58:01 [5]): 8000 nM; O-rate B*58:01 (t1/2) (HLA-B*58:01 [6]): 1.8 h
EAYQGVQQK [Rv3875_49–57] | – | – | 7.5 h | – | – | 10% | – | – | – | – | – | – | Bind A*02:01 (HLA-A*02:01; [11]): 0%; Bind A*24:02 (HLA-A*24:02; [12]): 0%; Bind A*30:01 (HLA-A*30:01; [13]): 0%; Bind A*30:02 (HLA-A*30:02 [7]; [14]): 0%; Bind A*68:01 (HLA-A*68:01 [1]; [15]): 74%; Aff A*68:01 (ED50) (HLA-A*68:01 [2]; [16]): 4e-08 M; Bind B*58:01 (HLA-B*58:01 [4]; [17]): 0%; Bind C*07:01 (HLA-C*07:01; [18]): 0%
AMGDAGGYK | 94% | 5e-07 M | 3.2 h | 0% | 0% | 8% | 31% | 0% | 28% | 80% | 700 nM | 1.6 h | –
SSFYSDWYS | 103% | 1e-07 M | 0.1 h | 0% | 1% | 0% | 53% | 0% | 0% | 72% | – | – | –
LPQW LSANR | 167% | 6E -08 M | 4.1 h | 0% | 0% | 31% | 6% | 26% | 29% | 0% | – | – | –
AVFNFPPNG | 81% | 8E -09 M | 0.2 h | 33% | 1% | 0% | 69% | 23% | 21% | 101% | 3000 nM | 0.3 h | –
TMAMMARDT [Rv0288_80–88] | 47% | 6e-05 M | 2.7 h | 0% | 0% | – | – | – | – | – | – | – | –
ETFLTSELP | 103% | 7e-07 M | 0.1 h | 16% | 0% | 5% | 25% | 2% | 4% | 0% | – | – | –
DW YSPACGK | 136% | 2E -07 M | 0.6 h | 0% | 0% | 0% | 10% | 0% | 11% | 0% | – | – | –
QSSFYSDWY | 82% | 1E -06 M | 0.4 h | 39% | 22% | 0% | 0% | 0% | 0% | 90% | 600 nM | 2.2 h | –
AVYLLDGLR | 114% | 2E -07 M | 1.1 h | 0% | 4% | 0% | 24% | 8% | 1% | 115% | 200 nM | 1.2 h | –
WGAQLNAMK | 153% | 3E -07 M | 2.4 h | 0% | 5% | 0% | 7% | 0% | 0% | 67% | – | – | –
EAAASAIQG [Rv3875_12–20] | – | – | 0.8 h | – | – | 5% | – | – | – | – | – | – | Bind A*02:01 (HLA-A*02:01; [11]): 0%; Bind A*24:02 (HLA-A*24:02; [12]): 0%; Bind A*30:01 (HLA-A*30:01; [13]): 0%; Bind A*30:02 (HLA-A*30:02 [7]; [14]): 0%; Bind A*68:01 (HLA-A*68:01 [1]; [15]): 59%; Aff A*68:01 (ED50) (HLA-A*68:01 [2]; [16]): 8e-07 M; Bind B*58:01 (HLA-B*58:01 [4]; [17]): 0%; Bind C*07:01 (HLA-C*07:01; [18]): 0%
